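These data come from cells grown in 96-well plates and exposed to compound for 48 hours at five concentrations. At the TGI there is no net growth.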
Columns and labels:
Test in all cases: NCI anticancer screen, dose series, 48 h
[1] = system: SNB-19 CNS
[2] = system: KM12 colon
[3] = system: COLO 205 colon
[4] = system: UACC-62 melanoma
[5] = system: U251 CNS
[6] = system: NCI-H460 lung
[7] = system: IGROV1 ovarian
[8] = system: OVCAR-8 ovarian
[9] = system: DMS 114 small cell lung
[10] = system: MOLT-4 leukemia
[11] = system: HCT-15 colon
[12] = system: A498 renal
[13] = system: LOX IMVI melanoma
[14] = system: HOP-92 NSCLC
[15] = system: NCI-H522 lung
[16] = system: SK-MEL-2 melanoma
[17] = system: SNB-78 CNS
[18] = system: M19-MEL melanoma
[19] = system: OVCAR-5 ovarian
[20] = system: CAKI-1 renal
[21] = system: SK-OV-3 ovarian
[22] = system: HOP-18 NSCLC
[23] = system: K-562 leukemia
[24] = system: HCC-2998 colon
[25] = system: 786-0 renal
[26] = system: LXFL 529 NSCLC
[27] = system: UO-31 renal
[28] = system: ACHN renal
[29] = system: SR leukemia
[30] = system: HOP-62 NSCLC
[31] = system: XF 498 CNS
[32] = system: A549 NSCLC
[33] = system: UACC-257 melanoma
[34] = system: MALME-3M melanoma
[35] = system: SF-539 CNS
[36] = system: SN12C renal
[37] = system: HCT-116 colon
[38] = system: KM20L2 colon
[39] = system: OVCAR-3 ovarian
[40] = system: SF-268 CNS
[41] = system: TK-10 renal
[42] = system: RXF 393 renal
[43] = system: NCI-H23 lung
[44] = system: SF-295 CNS
[45] = system: CCRF-CEM leukemia
[46] = system: HT29 colon
[47] = system: DLD-1 colon
[48] = system: M14 melanoma
[49] = system: SNB-75 CNS
[50] = system: SK-MEL-28 melanoma
[51] = system: RXF-631 renal
[52] = system: SK-MEL-5 melanoma
[53] = system: HL-60(TB) leukemia
[54] = system: EKVX NSCLC
[55] = system: RPMI-8226 leukemia
[56] = system: NCI-H226 lung

Measured: TGI

CN1CC[C@]2(C)c3c(O)cccc3CC3CCCC1C32C (stereo partly specified)
72.7 µM: [24]
> 100 µM: all other assays above

Reference: PubChem BioAssay (NCI)
